Reference: PubChem BioAssay (NCI)
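Cells were grown in 96-well plates and exposed to each compound for 48 hours at five concentrations; endpoints were interpolated linearly between bracketing concentrations, or set to the highest concentration if not reached. GI50: concentration for 50% inhibition of growth. TGI marks complete inhibition of growth.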

Tests used:
Test in all cases: growth of human tumour cells (NCI), 48 h
KM12 colon = system: KM12 colon
A549 NSCLC = system: A549 NSCLC
HCT-116 colon = system: HCT-116 colon
CCRF-CEM leukemia = system: CCRF-CEM leukemia
HOP-92 NSCLC = system: HOP-92 NSCLC
UACC-62 melanoma = system: UACC-62 melanoma
K-562 leukemia = system: K-562 leukemia
UACC-257 melanoma = system: UACC-257 melanoma
NCI-H226 lung = system: NCI-H226 lung
RXF 393 renal = system: RXF 393 renal

| Structure (SMILES) | GI50 (KM12 colon) | TGI (KM12 colon) | GI50 (A549 NSCLC) | TGI (A549 NSCLC) | GI50 (HCT-116 colon) | TGI (HCT-116 colon) | GI50 (CCRF-CEM leukemia) | TGI (CCRF-CEM leukemia) | GI50 (HOP-92 NSCLC) | TGI (HOP-92 NSCLC) | GI50 (UACC-62 melanoma) | TGI (UACC-62 melanoma) | GI50 (K-562 leukemia) | TGI (K-562 leukemia) | GI50 (UACC-257 melanoma) | TGI (UACC-257 melanoma) | GI50 (NCI-H226 lung) | TGI (NCI-H226 lung) | GI50 (RXF 393 renal) | TGI (RXF 393 renal) |
| --- | --- | --- | --- | --- | --- | --- | --- | --- | --- | --- | --- | --- | --- | --- | --- | --- | --- | --- | --- | --- |
| C/C=C/C(=O)[O-].N.N.N.N.N.[Co+3].[O-][Cl+3]([O-])([O-])[O-] | > 100 µM | > 100 µM | > 100 µM | > 100 µM | > 100 µM | > 100 µM | > 100 µM | > 100 µM | > 100 µM | > 100 µM | > 100000 nM | > 100 µM | > 100000 nM | > 100 µM | > 100 µM | > 100 µM | – | – | – | – |
| Cc1ccc(S(=O)(=O)c2ccsc2N)cc1 | > 100 µM | > 100 µM | > 100 µM | > 100 µM | > 100 µM | > 100 µM | > 100 µM | > 100 µM | 73.9 µM | > 100 µM | > 100000 nM | > 100 µM | > 100000 nM | > 100 µM | > 100 µM | > 100 µM | 45.9 µM | > 100 µM | 63.9 µM | > 100 µM |
| COC(=O)C1=C(c2cc(OC)c(OC)c(OC)c2)O[C@H](c2ccc3c(c2)OCO3)[C@H]1COC(C)=O | – | > 100 µM | – | – | – | – | – | > 100 µM | – | 54.4 µM | – | – | – | 91.8 µM | – | > 100 µM | – | > 100 µM | – | – |
| CC(C)=CCC/C(C)=C/[C@H]1OC(=O)CC12C[C@H](O)C=CC2=O (stereo partly drawn) | 0.777 µM | 2.67 µM | 2.08 µM | 15.8 µM | 0.323 µM | 1.21 µM | 0.171 µM | 0.521 µM | 1.21 µM | 3.06 µM | 1340 nM | 2.68 µM | 363 nM | > 100 µM | 1.2 µM | 2.82 µM | – | – | – | – |
| Cc1ccc(C)c2c1CCc1cc3ccccc3nc1-2 | – | > 100 µM | – | > 100 µM | – | > 100 µM | – | > 100 µM | – | – | – | > 100 µM | – | > 100 µM | – | > 100 µM | – | – | – | – |
| N#C/C(=C\c1cccnc1)c1nc2ccccc2o1 | > 100 µM | > 100 µM | > 100 µM | > 100 µM | > 100 µM | > 100 µM | – | – | 40.8 µM | > 100 µM | > 100000 nM | > 100 µM | > 100000 nM | > 100 µM | > 100 µM | > 100 µM | > 100 µM | > 100 µM | > 100 µM | > 100 µM |
| O=C(O)Cc1cc(=O)[nH]c2c1C(=O)CCC2 | – | > 100 µM | – | – | – | – | – | > 100 µM | – | > 100 µM | – | – | – | > 100 µM | – | > 100 µM | – | > 100 µM | – | > 100 µM |
| O=c1[nH]cnc2nc(-c3ccc(N(CCCl)CCCl)cc3)[nH]c12 | 70.3 µM | > 100 µM | 6.19 µM | > 100 µM | 12.6 µM | > 100 µM | > 100 µM | > 100 µM | 17.8 µM | > 100 µM | 507 nM | 71.6 µM | 1900 nM | > 100 µM | – | – | 7.13 µM | 80.6 µM | 15.8 µM | 50.7 µM |
